# Experimental data published in article PMC11314561, “Design and Synthesis of Novel Aminoindazole-pyrrolo[2,3-b]pyridine Inhibitors of IKKα That Selectively Perturb Cellular Non-Canonical NF-κB Signalling” (Molecules, 2024).
# What was measured:
# Experiment in all cases: kinase panel
# Format in all cases: biochemical
# Bmx(h) = Bmx(h) (Homo sapiens, UniProt P51813)
# Procedure, shortened: (§1)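 Values are percent inhibition from kinome-wide profiling of three series compounds across 231 kinases, with a structurally similar analogue tested on only 98 selected kinases.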
# SAPK2a(h) = SAPK2a(h) (Homo sapiens, UniProt Q16539)
# Procedure, shortened: as §1
# DRAK1(h) = DRAK1(h) (Homo sapiens, UniProt Q9UEE5)
# Procedure, shortened: as §1
# PhKγ2(h) = PhKγ2(h) (Homo sapiens, UniProt P15735)
# Procedure, shortened: as §1
# HIPK3(h) = HIPK3(h) (Homo sapiens, UniProt Q9H422)
# Procedure, shortened: as §1
# PAK4(h) = PAK4(h) (Homo sapiens, UniProt O96013)
# Procedure, shortened: as §1
# Itk(h) = Itk(h) (Homo sapiens, UniProt Q08881)
# Procedure, shortened: as §1
# PAK5(h) = PAK5(h) (Homo sapiens, UniProt Q9P286)
# Procedure, shortened: as §1
# EphB3(h) = EphB3(h) (Homo sapiens, UniProt P54753)
# Procedure, shortened: as §1
# Axl(h) = Axl(h) (Homo sapiens, UniProt P30530)
# Procedure, shortened: as §1
# PKCε(h) = PKCε(h) (Homo sapiens, UniProt Q02156)
# Procedure, shortened: as §1
# MRCKβ(h) = MRCKβ(h) (Homo sapiens, UniProt Q9Y5S2)
# Procedure, shortened: as §1
# CK1γ1(h) = CK1γ1(h) (Homo sapiens, UniProt Q9HCP0)
# Procedure, shortened: as §1
# WNK3(h) = WNK3(h) (Homo sapiens, UniProt Q9BYP7)
# Procedure, shortened: as §1
# Rsk4(h) = Rsk4(h) (Homo sapiens, UniProt Q9UK32)
# Procedure, shortened: as §1
# MuSK(h) = MuSK(h) (Homo sapiens, UniProt O15146)
# Procedure, shortened: as §1
# DMPK(h) = DMPK(h) (Homo sapiens, UniProt Q09013)
# Procedure, shortened: as §1
# CK1γ2(h) = CK1γ2(h) (Homo sapiens, UniProt P78368)
# Procedure, shortened: as §1
# PKCι(h) = PKCι(h) (Homo sapiens, UniProt P41743)
# Procedure, shortened: as §1
# Pyk2(h) = Pyk2(h) (Homo sapiens, UniProt Q14289)
# Procedure, shortened: as §1
# GRK5(h) = GRK5(h) (Homo sapiens, UniProt P34947)
# Procedure, shortened: as §1
# Rsk3(h) = Rsk3(h) (Homo sapiens, UniProt Q15349)
# Procedure, shortened: as §1
# PKG1β(h) = PKG1β(h) (Homo sapiens, UniProt Q13976)
# Procedure, shortened: as §1
# TGFBR1(h) = TGFBR1(h) (Homo sapiens, UniProt P36897)
# Procedure, shortened: as §1
# cKit(h) = cKit(h) (Homo sapiens, UniProt P10721)
# Procedure, shortened: as §1
# ULK2(h) = ULK2(h) (Homo sapiens, UniProt Q8IYT8)
# Procedure, shortened: as §1
# SAPK2b(h) = SAPK2b(h) (Homo sapiens, UniProt Q15759)
# Procedure, shortened: as §1
# Pim-3(h) = Pim-3(h) (Homo sapiens, UniProt Q86V86)
# Procedure, shortened: as §1
# MRCKα(h) = MRCKα(h) (Homo sapiens, UniProt Q5VT25)
# Procedure, shortened: as §1
# PAK6(h) = PAK6(h) (Homo sapiens, UniProt Q9NQU5)
# Procedure, shortened: as §1
# PTK5(h) = PTK5(h) (Homo sapiens, UniProt P42685)
# Procedure, shortened: as §1
# EphA4(h) = EphA4(h) (Homo sapiens, UniProt P54764)
# Procedure, shortened: as §1
# IGF-1R(h) = IGF-1R(h) (Homo sapiens, UniProt P08069)
# Procedure, shortened: as §1
# TSSK2(h) = TSSK2(h) (Homo sapiens, UniProt Q96PF2)
# Procedure, shortened: as §1
# GRK6(h) = GRK6(h) (Homo sapiens, UniProt P43250)
# Procedure, shortened: as §1
# Tie2 (h) = Tie2 (h) (Homo sapiens, UniProt Q02763)
# Procedure, shortened: as §1
# EphA8(h) = EphA8(h) (Homo sapiens, UniProt P29322)
# Procedure, shortened: as §1
# IGF-1R(h), activated = IGF-1R(h), activated (Homo sapiens, UniProt P08069)
# Procedure, shortened: as §1
# PKCβI(h) = PKCβI(h) (Homo sapiens, UniProt P05771)
# Procedure, shortened: as §1
# HIPK2(h) = HIPK2(h) (Homo sapiens, UniProt Q9H2X6)
# Procedure, shortened: as §1
# AMPKα2(h) = AMPKα2(h) (Homo sapiens, UniProt P54646)
# Procedure, shortened: as §1
# Chain of PAK4(h) (O96013 whole entry): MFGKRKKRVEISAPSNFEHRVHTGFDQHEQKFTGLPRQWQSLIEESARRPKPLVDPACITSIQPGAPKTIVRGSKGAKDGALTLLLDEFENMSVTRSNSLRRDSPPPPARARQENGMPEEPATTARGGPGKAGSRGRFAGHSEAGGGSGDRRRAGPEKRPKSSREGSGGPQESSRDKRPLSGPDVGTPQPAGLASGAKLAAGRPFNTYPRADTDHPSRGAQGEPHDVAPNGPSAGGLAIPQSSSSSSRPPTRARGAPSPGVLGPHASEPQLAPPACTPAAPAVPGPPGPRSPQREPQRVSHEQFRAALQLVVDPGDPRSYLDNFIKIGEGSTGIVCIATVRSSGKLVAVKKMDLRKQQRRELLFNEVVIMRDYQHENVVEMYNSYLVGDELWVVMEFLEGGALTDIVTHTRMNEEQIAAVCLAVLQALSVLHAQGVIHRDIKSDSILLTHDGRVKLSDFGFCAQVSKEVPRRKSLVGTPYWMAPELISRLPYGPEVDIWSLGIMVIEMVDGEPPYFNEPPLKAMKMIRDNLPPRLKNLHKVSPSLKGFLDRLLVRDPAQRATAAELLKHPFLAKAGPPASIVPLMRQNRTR
# Chain of TSSK2(h) (Q96PF2 whole entry): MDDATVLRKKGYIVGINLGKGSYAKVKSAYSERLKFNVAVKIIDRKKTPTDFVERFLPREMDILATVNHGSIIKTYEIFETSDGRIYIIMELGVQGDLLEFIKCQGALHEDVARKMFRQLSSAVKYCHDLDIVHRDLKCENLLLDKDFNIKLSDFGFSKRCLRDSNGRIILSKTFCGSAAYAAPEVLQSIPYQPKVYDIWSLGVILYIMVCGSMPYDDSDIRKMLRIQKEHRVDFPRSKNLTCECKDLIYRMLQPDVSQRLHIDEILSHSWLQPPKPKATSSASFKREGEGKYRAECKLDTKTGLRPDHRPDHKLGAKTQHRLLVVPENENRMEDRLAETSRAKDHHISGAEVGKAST
# Chain of DMPK(h) (Q09013 whole entry): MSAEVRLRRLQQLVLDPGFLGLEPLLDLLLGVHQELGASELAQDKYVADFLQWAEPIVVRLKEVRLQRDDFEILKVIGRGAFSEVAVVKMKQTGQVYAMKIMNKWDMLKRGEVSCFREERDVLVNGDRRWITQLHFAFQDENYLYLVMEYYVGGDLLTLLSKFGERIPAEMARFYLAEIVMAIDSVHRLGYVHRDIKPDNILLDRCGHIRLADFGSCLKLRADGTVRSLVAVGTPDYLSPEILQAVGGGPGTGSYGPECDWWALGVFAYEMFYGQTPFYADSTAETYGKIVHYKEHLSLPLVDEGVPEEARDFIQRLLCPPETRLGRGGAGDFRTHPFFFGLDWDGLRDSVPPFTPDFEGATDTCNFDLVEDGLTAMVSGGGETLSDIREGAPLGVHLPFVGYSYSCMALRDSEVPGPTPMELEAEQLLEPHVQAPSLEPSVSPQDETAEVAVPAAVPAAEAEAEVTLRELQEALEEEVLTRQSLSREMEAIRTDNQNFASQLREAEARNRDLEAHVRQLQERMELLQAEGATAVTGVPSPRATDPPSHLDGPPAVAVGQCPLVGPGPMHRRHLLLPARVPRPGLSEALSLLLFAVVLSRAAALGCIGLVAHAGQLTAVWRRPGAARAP
# Chain of ULK2(h) (Q8IYT8 whole entry): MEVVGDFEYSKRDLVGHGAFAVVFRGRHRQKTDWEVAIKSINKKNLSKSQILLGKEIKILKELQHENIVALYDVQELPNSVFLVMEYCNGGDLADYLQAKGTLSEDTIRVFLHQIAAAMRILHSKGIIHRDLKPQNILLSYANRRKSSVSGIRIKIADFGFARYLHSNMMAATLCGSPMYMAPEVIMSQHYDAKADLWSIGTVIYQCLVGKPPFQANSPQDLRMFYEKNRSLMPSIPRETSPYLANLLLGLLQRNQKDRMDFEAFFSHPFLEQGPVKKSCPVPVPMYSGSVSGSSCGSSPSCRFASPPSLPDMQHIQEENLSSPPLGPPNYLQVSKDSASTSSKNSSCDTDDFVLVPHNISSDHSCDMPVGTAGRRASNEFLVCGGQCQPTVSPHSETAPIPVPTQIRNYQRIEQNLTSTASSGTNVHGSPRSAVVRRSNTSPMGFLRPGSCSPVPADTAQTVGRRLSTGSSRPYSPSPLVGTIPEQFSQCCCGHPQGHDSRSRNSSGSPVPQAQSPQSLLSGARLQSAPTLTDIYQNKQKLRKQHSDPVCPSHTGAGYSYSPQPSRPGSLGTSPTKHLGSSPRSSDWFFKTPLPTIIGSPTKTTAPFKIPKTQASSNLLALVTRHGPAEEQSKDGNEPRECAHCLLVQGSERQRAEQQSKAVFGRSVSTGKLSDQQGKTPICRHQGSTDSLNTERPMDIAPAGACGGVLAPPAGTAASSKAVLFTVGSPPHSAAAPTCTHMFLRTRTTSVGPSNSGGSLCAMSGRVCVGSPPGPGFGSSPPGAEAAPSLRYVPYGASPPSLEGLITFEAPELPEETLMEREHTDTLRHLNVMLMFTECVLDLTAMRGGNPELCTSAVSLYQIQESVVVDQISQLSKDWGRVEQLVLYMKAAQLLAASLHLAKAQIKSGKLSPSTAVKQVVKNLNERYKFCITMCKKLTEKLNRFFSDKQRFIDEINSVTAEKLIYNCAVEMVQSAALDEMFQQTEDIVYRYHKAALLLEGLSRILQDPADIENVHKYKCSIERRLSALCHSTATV
# Chain of AMPKα2(h) (P54646 whole entry): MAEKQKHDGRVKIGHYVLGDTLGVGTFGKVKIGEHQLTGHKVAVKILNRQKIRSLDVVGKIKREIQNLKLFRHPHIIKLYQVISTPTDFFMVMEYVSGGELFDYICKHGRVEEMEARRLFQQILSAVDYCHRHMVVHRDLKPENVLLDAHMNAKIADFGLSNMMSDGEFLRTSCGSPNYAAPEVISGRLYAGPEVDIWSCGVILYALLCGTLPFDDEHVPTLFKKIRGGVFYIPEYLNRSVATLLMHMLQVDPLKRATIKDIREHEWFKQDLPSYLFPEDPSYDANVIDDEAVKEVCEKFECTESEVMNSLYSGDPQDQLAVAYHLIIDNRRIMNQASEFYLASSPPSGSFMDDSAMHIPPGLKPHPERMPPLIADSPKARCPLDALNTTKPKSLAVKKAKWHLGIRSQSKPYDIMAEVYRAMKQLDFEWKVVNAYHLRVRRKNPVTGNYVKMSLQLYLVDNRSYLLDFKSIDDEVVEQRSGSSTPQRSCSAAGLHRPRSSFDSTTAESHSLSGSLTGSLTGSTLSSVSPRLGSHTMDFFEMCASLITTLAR
# Chain of AMPKα2(h) (Q9Y478 whole entry partner): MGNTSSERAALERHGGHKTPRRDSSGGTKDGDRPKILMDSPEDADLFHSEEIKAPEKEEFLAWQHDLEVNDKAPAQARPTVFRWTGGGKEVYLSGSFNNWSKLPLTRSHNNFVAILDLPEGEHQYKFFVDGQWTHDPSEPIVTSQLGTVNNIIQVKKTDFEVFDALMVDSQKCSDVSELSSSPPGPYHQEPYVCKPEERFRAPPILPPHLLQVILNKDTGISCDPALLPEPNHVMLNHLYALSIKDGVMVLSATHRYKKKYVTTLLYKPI
# Chain of AMPKα2(h) (P54619 whole entry partner): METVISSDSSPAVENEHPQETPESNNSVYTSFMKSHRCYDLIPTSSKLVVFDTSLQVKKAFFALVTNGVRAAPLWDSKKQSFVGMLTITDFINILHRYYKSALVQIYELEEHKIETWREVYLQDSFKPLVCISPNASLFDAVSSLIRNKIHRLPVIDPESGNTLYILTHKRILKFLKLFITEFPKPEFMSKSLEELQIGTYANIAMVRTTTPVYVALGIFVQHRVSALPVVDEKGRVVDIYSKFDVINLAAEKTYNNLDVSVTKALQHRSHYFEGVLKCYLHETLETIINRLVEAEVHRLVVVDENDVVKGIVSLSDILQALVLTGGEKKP
# Chain of HIPK3(h) (Q9H422 whole entry): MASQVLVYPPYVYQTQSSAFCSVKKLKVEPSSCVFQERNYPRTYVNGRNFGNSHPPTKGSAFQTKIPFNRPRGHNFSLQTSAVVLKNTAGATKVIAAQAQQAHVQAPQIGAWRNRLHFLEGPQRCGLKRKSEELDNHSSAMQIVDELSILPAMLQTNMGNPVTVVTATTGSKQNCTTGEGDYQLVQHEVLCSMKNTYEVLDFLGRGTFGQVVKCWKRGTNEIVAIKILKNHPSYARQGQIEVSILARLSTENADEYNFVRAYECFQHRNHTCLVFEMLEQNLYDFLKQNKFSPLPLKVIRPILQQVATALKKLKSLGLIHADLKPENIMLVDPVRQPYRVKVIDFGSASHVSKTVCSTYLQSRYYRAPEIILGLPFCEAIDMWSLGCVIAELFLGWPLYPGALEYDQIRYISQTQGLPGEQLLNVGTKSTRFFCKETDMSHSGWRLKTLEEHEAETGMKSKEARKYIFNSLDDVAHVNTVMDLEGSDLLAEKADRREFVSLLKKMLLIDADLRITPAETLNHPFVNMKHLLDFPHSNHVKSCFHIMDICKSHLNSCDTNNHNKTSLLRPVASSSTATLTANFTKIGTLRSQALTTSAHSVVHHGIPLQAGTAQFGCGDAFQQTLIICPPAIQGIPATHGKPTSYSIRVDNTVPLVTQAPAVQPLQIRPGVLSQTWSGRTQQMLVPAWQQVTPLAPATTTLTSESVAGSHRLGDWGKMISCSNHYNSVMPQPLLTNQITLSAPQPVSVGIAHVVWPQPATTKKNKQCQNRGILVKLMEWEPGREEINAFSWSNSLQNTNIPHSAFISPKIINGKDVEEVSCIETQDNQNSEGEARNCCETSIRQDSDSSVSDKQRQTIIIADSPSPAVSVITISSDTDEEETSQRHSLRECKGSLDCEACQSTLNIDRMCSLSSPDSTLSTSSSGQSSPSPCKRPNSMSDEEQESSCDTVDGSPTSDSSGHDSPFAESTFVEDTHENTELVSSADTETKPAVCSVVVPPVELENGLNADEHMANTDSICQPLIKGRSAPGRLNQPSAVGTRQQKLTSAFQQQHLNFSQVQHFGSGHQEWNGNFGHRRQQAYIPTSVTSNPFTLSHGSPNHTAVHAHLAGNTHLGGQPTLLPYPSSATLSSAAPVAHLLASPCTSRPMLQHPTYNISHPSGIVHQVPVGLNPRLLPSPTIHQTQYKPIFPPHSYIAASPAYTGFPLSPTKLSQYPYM
structure (smiles),measurement,setting,value
Nc1n[nH]c2ccc(-c3ccnc4[nH]c(-c5ccccc5)cc34)cc12 [Compound 4],inhibition at 1 µM,Bmx(h),55%
same,inhibition at 1 µM,SAPK2a(h),-16%
same,inhibition at 1 µM,DRAK1(h),67%
same,inhibition at 1 µM,PhKγ2(h),50%
same,inhibition at 1 µM,HIPK3(h),26%
same,inhibition at 1 µM,PAK4(h),42%
same,inhibition at 1 µM,Itk(h),18%
same,inhibition at 1 µM,PAK5(h),16%
same,inhibition at 1 µM,EphB3(h),8%
same,inhibition at 1 µM,Axl(h),55%
same,inhibition at 1 µM,PKCε(h),-14%
same,inhibition at 1 µM,MRCKβ(h),-10%
same,inhibition at 1 µM,CK1γ1(h),20%
same,inhibition at 1 µM,WNK3(h),20%
same,inhibition at 1 µM,Rsk4(h),17%
same,inhibition at 1 µM,MuSK(h),48%
same,inhibition at 1 µM,DMPK(h),5%
same,inhibition at 1 µM,CK1γ2(h),49%
same,inhibition at 1 µM,PKCι(h),3%
same,inhibition at 1 µM,Pyk2(h),63%
same,inhibition at 1 µM,GRK5(h),5%
same,inhibition at 1 µM,Rsk3(h),53%
same,inhibition at 1 µM,PKG1β(h),13%
same,inhibition at 1 µM,TGFBR1(h),28%
same,inhibition at 1 µM,cKit(h),51%
same,inhibition at 1 µM,ULK2(h),2%
same,inhibition at 1 µM,SAPK2b(h),-13%
same,inhibition at 1 µM,Pim-3(h),10%
same,inhibition at 1 µM,MRCKα(h),-22%
same,inhibition at 1 µM,PAK6(h),32%
same,inhibition at 1 µM,PTK5(h),74%
same,inhibition at 1 µM,EphA4(h),9%
same,inhibition at 1 µM,IGF-1R(h),64%
same,inhibition at 1 µM,TSSK2(h),-9%
same,inhibition at 1 µM,GRK6(h),0%
same,inhibition at 1 µM,Tie2 (h),55%
same,inhibition at 1 µM,EphA8(h),-2%
same,inhibition at 1 µM,"IGF-1R(h), activated",61%
same,inhibition at 1 µM,PKCβI(h),-2%
same,inhibition at 1 µM,HIPK2(h),57%
same,inhibition at 1 µM,AMPKα2(h),43%
Nc1n[nH]c2ccc(-c3ccnc4[nH]c(-c5cccc(OCc6ccccc6)c5)cc34)cc12 [Compound 5r [SU1261]],inhibition at 1 µM,Bmx(h),17%
same,inhibition at 1 µM,SAPK2a(h),0%
same,inhibition at 1 µM,DRAK1(h),24%
same,inhibition at 1 µM,PhKγ2(h),21%
same,inhibition at 1 µM,HIPK3(h),6%
same,inhibition at 1 µM,PAK4(h),37%
same,inhibition at 1 µM,Itk(h),20%
same,inhibition at 1 µM,PAK5(h),10%
same,inhibition at 1 µM,EphB3(h),-4%
same,inhibition at 1 µM,Axl(h),9%
same,inhibition at 1 µM,PKCε(h),0%
same,inhibition at 1 µM,MRCKβ(h),4%
same,inhibition at 1 µM,CK1γ1(h),10%
same,inhibition at 1 µM,WNK3(h),17%
same,inhibition at 1 µM,Rsk4(h),4%
same,inhibition at 1 µM,MuSK(h),13%
same,inhibition at 1 µM,DMPK(h),-4%
same,inhibition at 1 µM,CK1γ2(h),28%
same,inhibition at 1 µM,PKCι(h),-10%
same,inhibition at 1 µM,Pyk2(h),22%
same,inhibition at 1 µM,GRK5(h),3%
same,inhibition at 1 µM,Rsk3(h),27%
same,inhibition at 1 µM,PKG1β(h),1%
same,inhibition at 1 µM,TGFBR1(h),21%
same,inhibition at 1 µM,cKit(h),9%
same,inhibition at 1 µM,ULK2(h),-4%
same,inhibition at 1 µM,SAPK2b(h),-18%
same,inhibition at 1 µM,Pim-3(h),6%
same,inhibition at 1 µM,MRCKα(h),-18%
same,inhibition at 1 µM,PAK6(h),22%
same,inhibition at 1 µM,PTK5(h),29%
same,inhibition at 1 µM,EphA4(h),2%
same,inhibition at 1 µM,IGF-1R(h),14%
same,inhibition at 1 µM,TSSK2(h),-9%
same,inhibition at 1 µM,GRK6(h),-8%
same,inhibition at 1 µM,Tie2 (h),18%
same,inhibition at 1 µM,EphA8(h),-7%
same,inhibition at 1 µM,"IGF-1R(h), activated",32%
same,inhibition at 1 µM,PKCβI(h),-6%
same,inhibition at 1 µM,HIPK2(h),14%
same,inhibition at 1 µM,AMPKα2(h),13%
